Laboratory results published in US7071168B2, “Anti-cancer compounds and methods related thereto” (The Regents of the University of Colorado, priority 1998, dated 2006).

tested on: bradykinin response of isolated guinea pig ileum; assay: Anti-bradykinin activity on isolated guinea pig ileum; settings: Table 1; higher numbers indicate higher potency
Description: In general, Anti-bradykinin activity was determined by the classical guinea pig ileum assay and on Chinese hamster ovary (CHO) cells expressing cloned human bradykinin B2 receptors. Anti-tumor activity was determined on cultured human cancer cell lines using the standard tetrazolium (MTT) assay.
Male Hartley guinea pigs that had been deprived of food overnight were sacrificed, and sections of terminal ileum, 25 mm in length, were dissected, attached to tissue holders and immersed in 10 ml tissue baths containing Krebs' solution bubbled with 95% O2/5% CO2. Tissues were placed under 1 g tension and incubated for 1 h equilibration. Concentration-effect curves were constructed to bradykinin in the absence and presence of new compounds.

Compared with “DArg-Arg-Pro-Hyp-Gly-Thi-Ser-DTic-Nc6G-Arg [B10014]”, “DArg-Arg-NMF-Hyp-Gly-Thi-Ser-DIgl-Oic-Arg [B9966]” is lower in “GPI: pA2 for bradykinin antagonist activity on isolated guinea pig ileum” value (from here on “GPI: pA2”): 7.6 for the first, 6.9 for the second.

Compared with F5c-Bip-Arg [M394], F5c-Lys(F5bz)-Arg [M682] is higher in “GPI: pA2” value: 4.7 for the first, 4.9 for the second.

F5c-DArg-Arg-Aud-DTic-hPhe-Arg [M766] and Gun-Eac-DIgl-Oic-Arg [M42] are within 0.2 log units of each other in “GPI: pA2” value: 5.1 for the first, 5.0 for the second.

First: F5c-m-APa-Arg [M412]
Second: Ac-PdF-Arg [M118-3]
The “GPI: pA2” value of the first is higher: 5.8 for the first, 5.4 for the second.

Compared with “DArg-Arg-Pro-Hyp-Gly-Igl-Ser-DIgl-Nc7G-Arg [B10010]”, Dcg-Trx-Arg [M134] is lower in “GPI: pA2” value: 7.7 for the first, 4.9 for the second.

First: Aaa-DArg-Arg-Pro-Hyp-Gly-(D,L)DMF-Ser-DTic-Oic-Arg [B9126]
Second: F5c-APb-Arg [M372]
The “GPI: pA2” value of the first is higher: 6.4 for the first, 4.6 for the second.

Going from “Dhq-DArg-Arg-Pro-Hyp-Gly-CpG-Ser-DCpG-CpG-Arg [B9074]” to F5c-Dpr(Paa)-Arg [M690], the “GPI: pA2” value falls from 6.3 to 4.8.

Going from “DArg-Arg-Pro-Hyp-Gly-Phe-Ser-DCpG-CpG-Arg [B8840]” to DDD-(DArg-hPhe-Arg)2 [M554], the “GPI: pA2” value falls from 6.8 to 5.1.

First: DDD-(Eac-Arg-Digl-Oic-Arg)2 [B10198-1]
Second: Dcg-BtA-Arg [M68]
The “GPI: pA2” value of the first is higher: 5.7 for the first, 4.9 for the second.

First: Aaa-DArg-Arg-Pro-Hyp-Gly-(D,L)DMF-Ser-DTic-Oic-Arg [B9126-2]
Second: ε-SUB-(Lys-DArg-Arg-Eac-Ser-DF5F-Nc7G-Arg)2 [M1038]
The “GPI: pA2” value of the first is higher: 7.3 for the first, 6.4 for the second.

Going from “DArg-Arg-Pro-Hyp-Gly-Thi-Ser-CpG-DCpG-DArg [B8858]” to Dcg-Gly-Cmp-Arg [M124], the “GPI: pA2” value falls from 5.2 to 4.7.

Gun-2-Nal-Arg [M20] and F5c-Ana-Arg [M392] are within 0.2 log units of each other in “GPI: pA2” value: 4.6 for the first, 4.5 for the second.

Going from Dcg-Pac-Gly-m-ABz-2-Nal-Arg [M200-2] to F5c-Phe-Arg [M410], the “GPI: pA2” value rises from 4.9 to 5.4.

Compared with “Aca-DArg-Arg-Pro-Hyp-Gly-Thi-Ser-(D,L)Igl-Oic-Arg [B9224-2]”, “DArg-Arg-Nig-Hyp-Gly-Igl-Ser-DIgl-Oic-Arg [B9960]” is lower in “GPI: pA2” value: 8.4 for the first, 7.7 for the second.

First: DArg-Arg-Pro-Hyp-Gly-CpG-Ser-DCpG-CpG-Arg [B8838]
Second: Dcg-Igl-Arg [M70]
The “GPI: pA2” value of the first is higher: 7.0 for the first, 4.8 for the second.

First: Dcg-Ac6c-Arg [M86]
Second: Gun-Ica-Arg [M88]
The “GPI: pA2” value of the first is higher: 5.0 for the first, 4.7 for the second.

F5c-p-ABz-Arg [M148] and Dcg-Ile-Arg [M84] are the same in “GPI: pA2” value: 5.1 for the first, 5.1 for the second.

Going from Dcg-2-Nal-Atpc-Arg [M232-3] to F5c-Tic-Arg [M382], the “GPI: pA2” value falls from 5.1 to 4.7.

Going from Ac-PaF(Dcg)-p-ABz-Arg [M146-2] to Dcg-Apa-Arg [M78], the “GPI: pA2” value rises from 4.9 to 5.6.

Going from F5c-p-Amb-Arg [M348] to Aaa-DIgl-hPhe-Arg [M772], the “GPI: pA2” value rises from 4.7 to 4.9.

Going from F5c-Lys{(CH3)3}-Arg [M388] to Dcg-Atpc-Arg [M232-1], the “GPI: pA2” value falls from 4.9 to 4.7.

Arg-Eac-DIgl-Ana-Arg [M406] was tested, and the “GPI: pA2” value was “Inact”.
In the case of Ac-PaF(Mcg)-p-ABz-Arg [M146-1], the “GPI: pA2” value is reported as “Inact”.
For F5c-Tyr-Arg [M380], the “GPI: pA2” value was “Inact”.
F5c-Pac-Arg [M398] was tested, and the “GPI: pA2” value was “Inact”.
With Mcg-Pac-Gly-m-ABz-2-Nal-Arg [M200-1] the “GPI: pA2” value was “Inact”.

same assay, conditions: isolated guinea pig ileum; pD2 of bradykinin is 7.4; higher numbers indicate higher potency

`O=C(C=Cc1c(F)c(F)c(F)c(F)c1F)Nc1ccc(C(=O)N[C@@H](Cc2ccc3ccccc3c2)C(=O)O)cc1` [M180] and `CC(=O)Nc1ccc(C=CC(=O)NCC(=O)Nc2cccc(C(=O)NC(Cc3ccc4ccccc4c3)C(=O)O)c2)cc1` (centres unmarked) [M204] are within 0.2 log units of each other in “GPI: pA2” value: 5.1 for the first, 5.0 for the second.

First: CC1(C)CC(NC(=O)C(CC(=O)O)NC(=O)C(Cc2ccc3ccccc3c2)NC(=NC2CCCCC2)NC2CCCCC2)CC(C)(C)N1 (centres unmarked) [M342]
Second: O=C(O)CC(NC(=O)C(Cc1ccc2ccccc2c1)NC(=NC1CCCCC1)NC1CCCCC1)C(=O)O (centres unmarked) [M162]
The “GPI: pA2” value of the first is higher: 5.4 for the first, 4.9 for the second.

`O=C(C=Cc1ccc(NC(=NC2CCCCC2)NC2CCCCC2)cc1)NCC(=O)Nc1cccc(C(=O)NC(Cc2ccc3ccccc3c2)C(=O)O)c1` (centres unmarked) [M340] and `O=C(NC(Cc1ccc(NC(=NC2CCCCC2)NC2CCCCC2)cc1)C(=O)O)c1ccc2ccccc2c1` (centres unmarked) [M168-2] are within 0.2 log units of each other in “GPI: pA2” value: 4.8 for the first, 4.7 for the second.

Compared with `N=C(N)Nc1ccc(CC(NC(=O)C(Cc2ccc3ccccc3c2)NC(=NC2CCCCC2)NC2CCCCC2)C(=O)O)cc1` (centres unmarked) [M354], `O=C(O)c1ccc(NC(=O)C(Cc2ccc3ccccc3c2)NC(=NC2CCCCC2)NC2CCCCC2)cc1` (centres unmarked) [M120] is lower in “GPI: pA2” value: 5.2 for the first, 4.7 for the second.

Going from `N=C(Nc1ccc(CC(=O)Nc2cccc(C(=O)O)c2)cc1)NC1CCCCC1` [M122-1] to `O=C(Cc1ccc(NC(=NC2CCCCC2)NC2CCCCC2)cc1)Nc1cccc(C(=O)O)c1` [M122-2], the “GPI: pA2” value falls from 5.0 to 4.6.

`O=C(O)c1cccc(NC(=O)C(Cc2ccc3ccccc3c2)NC(=NC2CCCCC2)NC2CCCCC2)c1` (centres unmarked) [M112] and `Nc1cc(NC(=O)C(Cc2ccc3ccccc3c2)NC(=NC2CCCCC2)NC2CCCCC2)cc(C(=O)O)c1` (centres unmarked) [M92-1] are within 0.2 log units of each other in “GPI: pA2” value: 5.1 for the first, 5.0 for the second.

`N=C(Nc1ccc(CC(NC(=O)c2ccc3ccccc3c2)C(=O)O)cc1)NC1CCCCC1` (centres unmarked) [M168-1] and `O=C(O)c1cccc(NC(=O)C(Cc2ccc3ccccc3c2)NC(=NC2CCCCC2)NC2CCCCC2)c1` (centres unmarked) [M76] are within 0.2 log units of each other in “GPI: pA2” value: 4.8 for the first, 4.9 for the second.

Going from `O=C(O)c1cc(NC(=O)C(Cc2ccc3ccccc3c2)NC(=NC2CCCCC2)NC2CCCCC2)cc(NC(=NC2CCCCC2)NC2CCCCC2)c1` (centres unmarked) [M92-4] to `N=C(N)Nc1cc(NC(=O)C(Cc2ccc3ccccc3c2)NC(=NC2CCCCC2)NC2CCCCC2)cc(C(=O)O)c1` (centres unmarked) [M92-2], the “GPI: pA2” value falls from 5.0 to 4.8.

Compared with `O=C(O)CC(NC(=O)C(Cc1ccc2ccccc2c1)NC(=NC1CCCCC1)NC1CCCCC1)C(=O)NC1CN2CCC1CC2` (single isomer, unassigned) [M336-2], `CC1(C)C=C(C(=O)NCCNC(=O)[C@H](Cc2ccc3ccccc3c2)NC(=NC2CCCCC2)NC2CCCCC2)C(C)(C)N1` [M270] is higher in “GPI: pA2” value: 5.4 for the first, 6.1 for the second.

Compared with `CC1(C)CC(NC(=O)[C@H](Cc2ccc3ccccc3c2)NC(=O)C23CC4CC(CC(C4)C2)C3)CC(C)(C)N1` [M250], `N=C(N)NC(Cc1ccc2ccccc2c1)C(=O)Nc1ccc(CC(=O)O)cc1` (centres unmarked) [M38] is lower in “GPI: pA2” value: 5.2 for the first, 4.9 for the second.

`O=C(O)Cc1ccc(NC(=O)C(NC(=NC2CCCCC2)NC2CCCCC2)C2Cc3ccccc3C2)cc1` (centres unmarked) [M72-1] and `N=C(N)NC(Cc1ccc2ccccc2c1)C(=O)Nc1ccc(CC(=O)O)cc1` (centres unmarked) [M32] are within 0.2 log units of each other in “GPI: pA2” value: 4.7 for the first, 4.8 for the second.

For `N=C(N)NCCCCCC(=O)NC(Cc1ccc2ccccc2c1)C(=O)NC(Cc1ccc(NC(=N)N)cc1)C(=O)O` (centres unmarked) [M8], the “GPI: pA2” value was “Inact”.
With `COc1cc(C=CC(=O)NC(Cc2c(F)c(F)c(F)c(F)c2F)C(=O)NC(Cc2cccnc2)C(=O)O)cc(OC)c1O` (centres unmarked) [M136] the “GPI: pA2” value was “Inact”.
